In the assay the target is Induced myeloid leukemia cell differentiation protein Mcl-1 (Homo sapiens) (UniProt Q07820). Briefly: Mcl-1/Noxa binding inhibitor potency, dose response, biochemical, TR-FRET (AID 1417). The conditions noted are these: Mcl-1/Noxa peptide interaction, cell-free TR-FRET (terbium/rhodamine), 2 h; measured here: absolute IC50.
Chain of Induced myeloid leukemia cell differentiation protein Mcl-1 (Homo sapiens) (Q07820 whole entry, looked up): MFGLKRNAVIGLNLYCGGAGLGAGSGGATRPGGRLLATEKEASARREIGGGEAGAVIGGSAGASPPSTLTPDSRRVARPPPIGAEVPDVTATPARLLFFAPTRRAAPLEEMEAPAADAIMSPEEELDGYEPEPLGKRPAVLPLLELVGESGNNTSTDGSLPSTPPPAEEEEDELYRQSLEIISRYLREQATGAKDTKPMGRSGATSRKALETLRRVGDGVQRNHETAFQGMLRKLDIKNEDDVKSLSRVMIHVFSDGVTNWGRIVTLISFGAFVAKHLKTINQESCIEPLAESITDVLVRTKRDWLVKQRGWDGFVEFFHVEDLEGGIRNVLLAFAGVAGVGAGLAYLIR
As usually defined, the IC50 is the concentration that inhibits the measured activity by half. The low end stands for inhibition by little substance, the high end for a need for much substance. `O=C1N=c2ccccc2=C1c1sc(Nc2ccc(O)cc2)nc1O` gave an IC50 of 1200 nM.

Regarding `O=C(CN1C(=O)/C(=C2\SC(=S)N(C3CCS(=O)(=O)C3)C2=O)c2ccccc21)Nc1ccc(F)cc1` (stereo not drawn), the IC50 is 2070 nM.

`CNc1sc(C(=O)c2ccccc2F)c(N)c1-c1nc2ccccc2s1` returned an IC50 of 5670 nM.

For the compound `CC(=O)Nc1sc(N/N=C\c2ccco2)nc1-c1cccs1`, the IC50 is 10600 nM.

Take `CC1=C(C#N)C(=O)NC(=O)/C1=C\c1ccc(-c2cc(C)c(C)cc2[N+](=O)[O-])o1`: the IC50 is < 400 nM.

In turn, `N=C1S/C(=C\c2ccc(-c3cccc(Cl)c3)o2)C(=O)N1c1nccs1` gave an IC50 of 861 nM.

As for `CCOC(=O)c1c(C)oc2c1c(C(c1ccncc1)N1CCOCC1)c(O)c1ccccc12` (stereo not drawn), the IC50 was < 400 nM.

The compound `CC(/C=C/c1ccco1)=N\NC(=O)c1cc(C)[nH]n1` returned an IC50 of 5640 nM.

In the case of `Nc1cccnc1Sc1cc(Cl)c(Cl)cc1Cl`, the IC50 is > 54000 nM.

`O=c1[nH]c(=S)[nH]c(O)c1N=Nc1ccc(-c2ccccc2)cc1[N+](=O)[O-]` gave an IC50 of 2990 nM.

`CCSc1ncc(/C=N/Nc2ccc([N+](=O)[O-])cc2)n1C` returned an IC50 of 2120 nM.

`COc1ccc(S(=O)(=O)Nc2cc(Sc3ncn[nH]3)c(O)c3ccccc23)cc1`: the IC50 is < 400 nM.

With `NC(=S)n1[nH]c(-c2ccc([N+](=O)[O-])cc2)c(N=Nc2ccc(O)cc2)c1=O`, the IC50 turned out to be 3130 nM.

Consider `CCC1=NNc2cccc3c(OC)ccc1c23`, for which the IC50 is > 54000 nM.

Regarding `O=C(O)c1ccc(-n2cccc2/C=C2/NC(=O)N(c3cccc(Cl)c3)C2=O)cc1`, the 50% inhibitory concentration (IC50) is < 400 nM.

On to `C/C(=N\Nc1ccc(C(=O)O)cc1)c1ccc2c(c1)Nc1ccccc1S2`, for which the IC50 is < 400 nM.

Compound `O=C(O)c1ccc(-n2cccc2/C=N\NC(=O)c2cc3cc(Br)ccc3o2)cc1` displayed an IC50 of 915 nM.

`COc1ccc(Nc2cc(C)c3c(O)cccc3n2)cc1` had an IC50 of 7120 nM.

Turning to `CC(C)CCC(CCN1CCCC1)c1ccc2c(c1)OCO2` (stereo not drawn), the IC50 was > 54000 nM.

For the compound `CC1CCCCC1NC(=O)c1ccc2c(c1)[nH]c(=O)n2C1CCCC1` (stereo not drawn), the IC50 is > 54000 nM.

Compound `Cc1ccc(S(=O)(=O)/N=C2/C=C(C3C(=O)CC(C)(C)CC3=O)C(=O)c3ccccc32)cc1` yielded an IC50 of 2870 nM.

For `CCN1c2ccccc2N(C)C1(C)c1ccccc1` (stereo not drawn), the IC50 amounted to 5110 nM.

In the case of `CN(C)c1ccc(Nc2c3c4c(cccc4n(C)c2=O)C(=O)c2ccccc2-3)cc1`, the IC50 was < 400 nM.

The compound `O=C(/C=C/c1ccccc1)c1ccc(NC2=NCCCS2)cc1` returned an IC50 of 6520 nM.

`O=C(O)c1ccc(N2C(=O)/C(=C/c3ccc(-c4ccc([N+](=O)[O-])cc4)o3)C=C2c2ccccc2)cc1`: the IC50 was < 400 nM.

Turning to `CCOC(=O)c1cc(C(O)(C(=O)OC)C(F)(F)F)c(/N=C/N(C)C)o1` (stereo not drawn), the IC50 was > 54000 nM.

In turn, `N/C(=N\N=C/c1ccc(-c2ccc(O)c(C(=O)O)c2)o1)N[N+](=O)[O-]` showed an IC50 of 2650 nM.

Take `N#Cc1c(NC(=O)c2cccc(S(=O)(=O)Nc3ccc(C(=O)O)cc3)c2)sc2c1CCCC2`: the IC50 amounted to 9510 nM.

`O=C(N/N=C/c1ccc(O)cc1)c1cccc(N/N=C/c2ccc(O)cc2)c1` gave an IC50 of 2050 nM.

In turn, `CCOC(=O)N1CCN(c2c(NCCCN(CC)Cc3ccccc3)c(=O)c2=O)CC1` gave an IC50 of 4060 nM.

Take `Oc1ccc(Br)cc1-c1cc(-c2ccc(Cl)cc2)n[nH]1`: the IC50 came to 1680 nM.

With `COc1cc(/C=C2\SC(=S)N(CC(=O)Nc3ccc(O)cc3)C2=O)cc(OC)c1OC`, the IC50 is < 400 nM.

`c1cncc(C2Nc3cccc4cccc(c34)N2)c1` returned an IC50 of 7270 nM.

The compound `Cc1ccc(NC(=O)Cn2c(O)c(N=NC(=O)c3cc4ccccc4cc3O)c3ccccc32)cc1` registered an IC50 of 2980 nM.

With `CCN(CCO)c1nc(SC)nc2c1sc1nc(-c3ccco3)c3c(c12)CCC3`, the IC50 was < 400 nM.

`O=C1NC(=S)N(C2CC2)C(=O)/C1=C/c1ccc2c(c1)CCN2CCCCl` gave an IC50 of 728 nM.

Compound `COc1ccc(NC(=O)c2cc3cccc(OC)c3oc2=Nc2ccc(C(=O)O)cc2)cc1OC` had a half-inhibitory concentration (IC50) of 2380 nM.

`Cc1cccc2c1c1ccc3c(c1n2C)C(=O)C=CC3=O`: the IC50 is < 400 nM.

For the compound `O=C(O)c1cccc(NC2=C(Cl)C(=O)c3ccccc3C2=O)c1`, the IC50 turned out to be 3790 nM.

In the case of `CCn1c(C)nc2cc(C(=O)N/N=C/c3ccc(O)c(O)c3O)ccc21`, the IC50 was < 400 nM.

`CC(/C=N\Nc1nnc2c(n1)[nH]c1c(C)cccc12)=C\c1ccco1` registered an IC50 of 3570 nM.

Take `O=C1CC(N2CCN(S(=O)(=O)c3ccccc3)CC2)C(=O)N1c1ccccc1` (stereo not drawn): the IC50 is > 54000 nM.

Consider `CCCCc1[nH]nc2c1C1(C(=O)N(CC)c3ccccc31)C(C#N)=C(N)O2` (stereo not drawn), for which the IC50 is > 54000 nM.

In the case of `Oc1ccc(/C=N/N=C(c2ccccc2)c2ccccc2)c(O)c1O`, the IC50 was < 400 nM.

For the compound `O=C1N=c2ccccc2=C1c1c(O)n(-c2cccc(F)c2)[nH]c1=O`, the IC50 was < 400 nM.

The compound `CC(=O)c1ccc(NC(=O)CSc2nnc(-c3ccco3)c(-c3ccco3)n2)cc1` registered an IC50 of 5960 nM.

Turning to `COc1cc(/C=C(/NC(C)=O)C(=O)O)cc(Cl)c1OCc1ccc(Br)cc1`, the IC50 is > 54000 nM.

`Cc1nnc(NC(=O)COc2ccc3c(C)cc(=O)oc3c2)s1` gave an IC50 of 5880 nM.

As to `CCN(CC)C(=O)COC(=O)c1cc(-c2ccco2)nc2ccccc12`, the IC50 is < 400 nM.

As for `CCCC1=NN2C(=N)/C(=C\c3ccc(SCc4ccco4)o3)C(=O)N=C2S1`, the IC50 is < 400 nM.

`Cc1cccn2c(=O)c3cc(C(=O)NCc4ccco4)c(=N)n(CCc4ccccc4)c3nc12` returned an IC50 of 3150 nM.

The compound `O=C(N/N=C/c1ccco1)c1cccc(N2Cc3ccccc3C2)c1` showed an IC50 of 3500 nM.

For `CS(=O)(=O)c1ccc2c(c1)sc1nc(=O)c(/C=C3/C=CC(=O)C(O)=C3)c(N)n12`, the IC50 is < 400 nM.

Regarding `O=C1C(=Cc2ccc(Br)o2)C(=O)c2ccccc21`, the IC50 is < 400 nM.

Regarding `Cc1oc(-c2ccc(Cl)cc2)cc1-c1nn2c(-c3ccoc3C)nnc2s1`, the IC50 is > 54000 nM.

Take `COc1cc(C2Nc3cccc4cccc(c34)N2)cc(OC)c1OC(C)=O`: the IC50 was found to be 2430 nM.

`Cc1ccc(NC(=O)CN2C(=O)S/C(=C/c3ccc(-c4cc(C(=O)O)ccc4C)o3)C2=O)cc1C` came in with an IC50 of 2850 nM.

Take `COc1ccc(-n2nc3cc(C)c(N)c(Br)c3n2)cc1`: the IC50 came out at 2860 nM.

For `COc1ccc(-c2cc3nc4ccccc4n3c(N)c2C#N)cc1`, the IC50 came to 4450 nM.

As to `Oc1ccc(/C=N/Nc2nc(-c3cccnc3)nc3ccccc23)c(O)c1`, the IC50 is > 54000 nM.

On to `CN(C)c1ccc(NC(=O)Cn2ncn3c(cc4ccccc43)c2=O)cc1`, for which the IC50 is 3420 nM.

In turn, `O=C1C(=Cc2cccn2-c2ccccc2)C(=O)c2ccccc21` showed an IC50 of 5190 nM.

On to `COc1ccc(CCNC(=O)COC(=O)Cc2cccc3ccccc23)cc1`, for which the IC50 was > 54000 nM.

`COc1cccc(C(=O)Nc2ccc3c(c2)C(=O)c2ccccc2C3=O)c1` yielded an IC50 of 2120 nM.

`CN(C)c1ncc(C2=C(Cl)C(=O)C(N3CCCC3)=C(Cl)C2=O)s1`: the IC50 is < 400 nM.

For the compound `COc1cc(/C=N/NC(=O)c2ccc([N+](=O)[O-])cc2Cl)cc(Br)c1O`, the IC50 is > 54000 nM.

As to `CC(=O)N(C1=C(Cl)C(=O)c2ccccc2C1=O)C1CCCCC1`, the IC50 was < 400 nM.

In the case of `CCOC(=O)C1=C(O)/C(=C/c2cc(OC)c(O)c(OC)c2)SC1=Nc1ccc(OC)cc1`, the IC50 was > 54000 nM.

(Values after PubChem BioAssay AID1417 (Emory University Molecular Libraries Screening Center, 2008).)
